Experimental data: ChEMBL document CHEMBL1137635, “Multiple antibiotics exert delayed effects against the Plasmodium falciparum apicoplast” (Antimicrob Agents Chemother, 2007)
Calls of active or inactive are those of the source. The rule behind the calls is not given here.

Tests used:
Plasmodium falciparum [1] = experiment: Antimalarial activity as 3rd generation ring-stage chloroquine-resistant Plasmodium falciparum W2 after 48 hrs dose then 48 hrs drug-free; format: functional, organism-based; settings: W2, 48 h
Plasmodium falciparum [2] = experiment: Antimalarial activity as 3rd generation parasitaemia against chloroquine-sensitive Plasmodium falciparum 3D7 infected human erythrocytes after 96hrs at 6 uM dosed 0-24 hrs post infection; format: functional
Plasmodium falciparum [3] = experiment: Antimalarial activity as 3rd generation parasitaemia against chloroquine-sensitive Plasmodium falciparum 3D7 infected human erythrocytes after 96hrs at 6 uM dosed 12-36 hrs post infection; format: functional
Plasmodium falciparum [4] = experiment: Antimalarial activity as 3rd generation ring-stage chloroquine-sensitive Plasmodium falciparum 3D7 after 48 hrs dose then 48 hrs drug-free; format: functional, organism-based; settings: 3D7, 48 h
Plasmodium falciparum [5] = experiment: Antimalarial activity as segregation of apicoplasts against chloroquine-sensitive Plasmodium falciparum 3D7 infected in human erythrocytes at 6 uM 96 hrs post infection; format: functional, organism-based
Plasmodium falciparum [6] = experiment: Antimalarial activity as segregation of apicoplasts against chloroquine-sensitive ACP1-GFP-labeled Plasmodium falciparum 3D7 schizont infected human erythrocytes at 6 uM 96 hrs post infection; format: functional, organism-based
[7] = Tmax in patient with bronchitis at 500 mg, po twice daily for 3 days; settings: human, in vivo
Plasmodium falciparum [8] = experiment: Antimalarial activity as abnormal apicoplast morphology in chloroquine-sensitive ACP1-GFP-labeled Plasmodium falciparum 3D7 trophozoite infected human erythrocytes at 2xIC50 dosed 96 hrs post infection; format: functional
Plasmodium falciparum [9] = experiment: Antimalarial activity as 3rd generation parasitaemia against chloroquine-sensitive Plasmodium falciparum 3D7 infected human erythrocytes after 96hrs at 6 uM dosed 24-36 hrs post infection; format: functional
Plasmodium falciparum [10] = experiment: Antimalarial activity as 3rd generation parasitaemia against chloroquine-sensitive Plasmodium falciparum 3D7 infected human erythrocytes after 96hrs at 6 uM dosed 36-48 hrs post infection; format: functional
Plasmodium falciparum [11] = experiment: Antimalarial activity as parasitaemia against chloroquine-sensitive ACP1-GFP-labeled Plasmodium falciparum 3D7 trophozoite infected human erythrocytes at 2xIC50 dosed 96 hrs post infection; format: functional
Plasmodium falciparum [12] = experiment: Antimalarial activity as 3rd generation parasitaemia against chloroquine-sensitive Plasmodium falciparum 3D7 infected human erythrocytes after 96hrs at 6 uM dosed 0-36 hrs post infection; format: functional
Plasmodium falciparum [13] = experiment: Antimalarial activity as 3rd generation parasitaemia against chloroquine-sensitive Plasmodium falciparum 3D7 infected human erythrocytes after 96hrs at 6 uM dosed 0-12 hrs post infection; format: functional
Plasmodium falciparum [14] = experiment: Antimalarial activity as schizont arrest after 48 hrs in chloroquine-sensitive Plasmodium falciparum 3D7 infected human erythrocytes at 6 uM 96 hrs post invasion by Giemsa staining; format: functional, organism-based
Plasmodium falciparum [15] = experiment: Antimalarial activity as 3rd generation parasitaemia against chloroquine-sensitive Plasmodium falciparum 3D7 infected human erythrocytes after 96hrs at 6 uM dosed 12-24 hrs post infection; format: functional
[16] = Cmax in patient with bronchitis at 500 mg, po twice daily for 3 days; settings: human, in vivo
Plasmodium falciparum [17] = experiment: Antimalarial activity as 2nd generation ring-stage chloroquine-sensitive Plasmodium falciparum 3D7 after 48 hrs by flow cytometry; format: functional, organism-based; settings: 3D7, 48 h
Plasmodium falciparum [18] = experiment: Antimalarial activity as 3rd generation parasitaemia against chloroquine-sensitive Plasmodium falciparum 3D7 infected human erythrocytes after 96hrs at 6 uM dosed 12-48 hrs post infection; format: functional
Plasmodium falciparum [19] = experiment: Antimalarial activity as 3rd generation parasitaemia against chloroquine-sensitive Plasmodium falciparum 3D7 infected human erythrocytes after 96hrs at 6 uM dosed 24-48 hrs post infection; format: functional
Plasmodium falciparum [20] = experiment: Antimalarial activity as 3rd generation after 96 hrs against chloroquine-sensitive Plasmodium falciparum 3D7 infected human erythrocytes at 6 uM 0-48 hrs post invasion; format: functional
Plasmodium falciparum [21] = experiment: Antimalarial activity as 2nd generation ring-stage chloroquine-resistant Plasmodium falciparum W2 after 48 hrs by flow cytometry; format: functional, organism-based; settings: W2, 48 h
Plasmodium falciparum [22] = experiment: Antimalarial activity as 3rd generation parasitaemia against chloroquine-sensitive Plasmodium falciparum 3D7 infected human erythrocytes after 96hrs at 25 nM dosed 24-36 hrs post infection; format: functional
Plasmodium falciparum [23] = experiment: Antimalarial activity as3rd generation parasitaemia against chloroquine-sensitive Plasmodium falciparum 3D7 infected human erythrocytes after 96 hrs at 25 nM dosed 12-36 hrs post infection; format: functional
Plasmodium falciparum [24] = experiment: Antimalarial activity as 3rd generation parasitaemia against chloroquine-sensitive Plasmodium falciparum 3D7 infected human erythrocytes after 96hrs at 25 nM dosed 0-12 hrs post infection; format: functional
Plasmodium falciparum [25] = experiment: Antimalarial activity in chloroquine-sensitive ACP1-GFP-labeled Plasmodium falciparum 3D7 after 48 hrs at 2xIC50 dosed 96 hrs post infection; format: functional, organism-based
Plasmodium falciparum [26] = experiment: Antimalarial activity as 3rd generation parasitaemia after 96 hrs against chloroquine-sensitive Plasmodium falciparum 3D7 infected human erythrocytes at 25 nM 36-48 hrs post invasion; format: functional
Plasmodium falciparum [27] = experiment: Antimalarial activity as 3rd generation parasitaemia against chloroquine-sensitive Plasmodium falciparum 3D7 infected human erythrocytes after 96hrs at 25 nM dosed 0-36 hrs post infection; format: functional
Plasmodium falciparum [28] = experiment: Antimalarial activity as abnormal apicoplast morphology in chloroquine-sensitive ACP1-GFP-labeled Plasmodium falciparum 3D7 after 48 hrs at 2xIC50 dosed 96 hrs post infection; format: functional, organism-based
Plasmodium falciparum [29] = experiment: Antimalarial activity as 3rd generation parasitaemia against chloroquine-sensitive Plasmodium falciparum 3D7 infected human erythrocytes after 96hrs at 25 nM dosed 0-48 hrs post infection; format: functional
Plasmodium falciparum [30] = experiment: Antimalarial activity as 3rd generation parasitaemia against chloroquine-sensitive Plasmodium falciparum 3D7 infected human erythrocytes after 96hrs at 25 nM dosed 12-48 hrs post infection; format: functional
Plasmodium falciparum [31] = experiment: Antimalarial activity as arrested schizont maturation in chloroquine-sensitive Plasmodium falciparum 3D7 infected human erythrocytes after 48 hrs at 25 nM dosed 96 hrs post infection; format: functional, organism-based
Plasmodium falciparum [32] = experiment: Antimalarial activity as 3rd generation parasitaemia against chloroquine-sensitive Plasmodium falciparum 3D7 infected human erythrocytes after 96 hr at 25 nM dosed 24-48 hrs post infection; format: functional
Plasmodium falciparum [33] = experiment: Antimalarial activity as 3rd generation parasitaemia against chloroquine-sensitive Plasmodium falciparum 3D7 infected human erythrocytes after 96hrs at 25 nM dosed 0-24 hrs post infection; format: functional
Plasmodium falciparum [34] = experiment: Antimalarial activity as segregation of apicoplasts against chloroquine-sensitive Plasmodium falciparum 3D7 infected human erythrocytes at 25 nM 96 hrs post infection; format: functional, organism-based
Plasmodium falciparum [35] = experiment: Antimalarial activity as segregation of apicoplast in chloroquine-sensitive ACP1-GFP-labeled Plasmodium falciparum 3D7 schizont infected human erythrocytes at 25 nM dosed 96 hrs post infection; format: functional, organism-based
Plasmodium falciparum [36] = experiment: Antimalarial activity as 3rd generation parasitaemia against chloroquine-sensitive Plasmodium falciparum 3D7 infected human erythrocytes after 96hrs at 25 nM dosed 12-24 hrs post infection; format: functional

Work on O=C(O)c1cn(C2CC2)c2cc(N3CCNCC3)c(F)cc2c1=O [CIPROFLOXACIN] yielded an IC50 (Plasmodium falciparum [1]) of 1.75 µM, an Activity (Plasmodium falciparum [2]) of 67% and an Activity (Plasmodium falciparum [3]) of 23%. The IC50 (Plasmodium falciparum [4]) was 3.04 µM, the Activity (Plasmodium falciparum [5]) was “Active” and the Activity (Plasmodium falciparum [6]) was “Active”. The Tmax at 72 h [7] was 36 min, the Activity (Plasmodium falciparum [8]) was 81.4% and the Activity (Plasmodium falciparum [9]) was 70%. For the same compound, the Activity (Plasmodium falciparum [10]) was 108%, the Activity (Plasmodium falciparum [11]) was 98.6% and the Activity (Plasmodium falciparum [12]) was 35%. For the same compound, the Activity (Plasmodium falciparum [13]) was 80%, the Activity (Plasmodium falciparum [14]) was “inactive” and the Activity (Plasmodium falciparum [15]) was 63%. The Cmax at 72 h [16] was 7.6 µM, the IC50 (Plasmodium falciparum [17]) was 9.44 µM and the Activity (Plasmodium falciparum [18]) was 24%. The Activity (Plasmodium falciparum [19]) was 74%, the Activity (Plasmodium falciparum [20]) was 13% and the IC50 (Plasmodium falciparum [21]) was 24.9 µM.

CCC[C@@H]1C[C@@H](C(=O)N[C@@H]([C@H]2O[C@H](SC)[C@H](O)[C@@H](O)[C@H]2O)[C@H](C)Cl)N(C)C1 [CLINDAMYCIN] gave an Activity (Plasmodium falciparum [22]) of 52%, an Activity (Plasmodium falciparum [23]) of 15% and an IC50 (Plasmodium falciparum [1]; read-out: IC50) of 0.00312 µM. For the same compound, the Activity (Plasmodium falciparum [24]) was 87%, the IC50 (Plasmodium falciparum [4]) was 0.00881 µM and the Activity (Plasmodium falciparum [25]) was “Active”. It also gave an Activity (Plasmodium falciparum [8]) of 85.2%, an Activity (Plasmodium falciparum [26]) of 63% and an Activity (Plasmodium falciparum [27]) of 21%. The Activity (Plasmodium falciparum [28]) was “Active”, the Activity (Plasmodium falciparum [29]) was 11% and the Activity (Plasmodium falciparum [30]) was 19%. The Activity (Plasmodium falciparum [11]) was 99.3%, the Activity (Plasmodium falciparum [31]) was “inactive” and the Activity (Plasmodium falciparum [32]) was 78%. For the same compound, the Activity (Plasmodium falciparum [33]) was 49%, the Activity (Plasmodium falciparum [34]) was “Active” and the Activity (Plasmodium falciparum [35]) was “Active”. The IC50 (Plasmodium falciparum [17]) was over 100 µM, the Activity (Plasmodium falciparum [36]) was 41% and the IC50 (Plasmodium falciparum [21]) was over 100 µM.
